Measurements published in patent publication US10570099B2, “Salts of an epidermal growth factor receptor kinase inhibitor” (Celgene CAR LLC, priority 2012, dated 2020).
Where a name gives a salt, the structure may show the parent alone.

Tests used:
[1] = Shake flask solubility of potential salts in aqueous medium (pH<2); format: physicochemical; details: pH<2, ca. 24 hours shaking, HPLC
Protocol: The solubility of the potential salts was tested using a shake flask method whereby a slurry of each salt was prepared in deionized water and the pH of the reaction was reduced to below pH 2 by adding a small amount of the counterion used for salt formation. The pH was tested using universal indicator paper.
(§1) (open vials). TGA was carried out after the stability studies for samples containing sufficient material.

[2] = 1 week stability of primary screen salts at 40° C./75% RH and 80° C. (open vials, XRPD); format: physicochemical
Protocol: as §1

[3] = Dog PK Study 1 (cross-over, fasted); format: in vivo, beagle dogs; details: male, beagle, po; for AUC(0-t): read-out: AUC0-24; for Tmax: median
Protocol: Compound 1 free base and compound 2, as the Form I monohydrobromide (HBr) salt, were evaluated in a cross-over dog PK study. Compound 1 free base capsule consisted of compound 1 free base in Vitamin E TPGS and PEG 400 filled into a capsule. The Form I hydrobromide salt capsule consisted of Form I HBr alone filled into a capsule.
Compound 1 free base capsule and Form I HBr capsule were dosed orally at 28.5 and 24.5 mg/kg (as active) QD, respectively, to three fasted male non-naïve beagle dogs (body weight range: 10.1-10.8 kg) with a 5-day washout period. Approximately 5 mL of tap water was orally administered to encourage swallowing and ensure delivery of capsules into the stomach. Plasma samples were collected at pre-dose and 0.5, 1, 2, 4, 6, 8, 12 and 24 hours post dose. The plasma concentrations of compound 1 were determined by a liquid chromatography-tandem mass spectrometry (LC/MS/MS) method.

[4] = Dog PK Study 2 (gastric pH adjustment, food effect); format: in vivo, beagle dogs; details: 30 mg/kg, plasma compound 1, dogs (n = 3), capsule orally 30 mg/kg, mean (% CV); for AUC(0-t): read-out: AUC0-24
Protocol: Compound 1 free base and compound 2, as the Form I monohydrobromide (HBr) salt, were evaluated in a cross-over dog PK study in which male dogs were pre-treated with either pentagastrin (to decrease gastric pH) or famotidine (to increase gastric pH) prior to oral dosing to control gastric pH. In addition, the effect of food on the systemic exposure to compound 1 was also evaluated in dogs receiving Form I HBr with pentagastrin pre-treatment. Compound 1 free base capsule consisted of compound 1 free base in Vitamin E TPGS and PEG 400 filled into a capsule. The Form I hydrobromide salt capsule consisted of Form I HBr alone filled into a capsule.
There was a minimum 6-day washout between dosing. On the day of dosing under fed condition, dogs were given 60 gram of a high fat diet (Harlan Teklad 2027C) and allowed to consume all of the food within 15-20 minutes. The animals were given a 10-minute rest period and then the capsule doses were administered. Plasma samples were collected at pre-dose and 0.5, 1, 2, 4, 6, 8, 12 and 24 hours post dose.

[5] = Thermodynamic solubility in media of various pH (HPLC; XRPD of excess solids); details: for Thermodynamic Solubility: ca. 24 hours
Protocol: The remaining solids were also analysed by XRPD analysis to establish if any changes in the solid form occurred.
The remaining solids were also analysed by XRPD analysis to establish if any changes in the solid form occurred. For the buffer solutions, KCl/HCl was used for pH 1 and citrate/phosphate combinations for pH 3, 4.5 and 6.6.
The remaining solids were also analysed by XRPD analysis to establish if any changes in the solid form occurred. For the buffer solutions, KCl/HCl was used for pH 1 and citric acid/sodium citrate combinations for pH 3, 4.5 and 6.2.
The solids were then removed by filtration and tested by XRPD analysis. The mother liquors were analyzed by HPLC to determine API solubility.
For the buffer solutions, KCl/HCl was used for pH 1 and citrate/phosphate combinations for pH 3, 4.5 and 6.6 (10 mM). The pH of the solutions was also measured prior to HPLC analysis.

[6] = Dynamic vapour sorption (DVS); format: physicochemical
Protocol: For dynamic vapour sorption (DVS), approximately 10-20 mg of sample was placed into a wire mesh vapour sorption balance pan and loaded into a DVS-1 dynamic vapour sorption balance by Surface Measurement Systems. The sample was subjected to a ramping profile from 20-90% relative humidity (RH) at 10% increments, maintaining the sample at each step until a stable weight had been achieved (99.5% step completion). After completion of the sorption cycle, the sample was dried using the same procedure, but all the way down to 0% RH and finally taken back to the starting point of 20% RH. The weight change during the sorption/desorption cycles were plotted, allowing for the hygroscopic nature of the sample to be determined.

[7] = 1 week stability study (XRPD and HPLC); format: physicochemical
Protocol: (§2) Resulting solids were analysed by XRPD and HPLC to establish if any changes had occurred.
as §2
The resulting solids were analysed by XRPD and HPLC to establish if any changes had occurred.

[8] = plasma compound 1, fasted dogs, capsule orally 28.5 mg/kg, mean, dog #3 excluded
[9] = dog, plasma compound 1, fasted dogs (n = 3), capsule orally 24.5 mg/kg, mean (% CV)
[10] = 25° C., closed container, 7 day
[11] = 80° C., closed container, 7 day

## C=CC(=O)Nc1cccc(Nc2nc(Nc3ccc(N4CCN(C(C)=O)CC4)cc3OC)ncc2C(F)(F)F)c1.O=C(O)c1c(O)cc(O)cc1O [2,4,6-Trihydroxybenzoate Form II]
[1]
  Approximate Solubility: Below LOQ

## C=CC(=O)Nc1cccc(Nc2nc(Nc3ccc(N4CCN(C(C)=O)CC4)cc3OC)ncc2C(F)(F)F)c1.O=C(O)c1c(O)cc(O)cc1O [2,4,6-Trihydroxybenzoate Form I]
[1]
  Approximate Solubility: Below LOQ
[2]
  Stability 40° C./75% RH (open conditions): No form change,
  Stability 80° C. (open conditions): No form change,

## C=CC(=O)Nc1cccc(Nc2nc(Nc3ccc(N4CCN(C(C)=O)CC4)cc3OC)ncc2C(F)(F)F)c1 [Compound 1 (Free Base)]
[3]; [8]
  Cmax: 120 ng/mL
  half-life: 2.1 h
  AUC(0-t): 278 ng·h/mL
[3]; plasma compound 1, fasted dogs, capsule orally 28.5 mg/kg, dog #3 excluded
  Tmax: 1 h
[4]; male, beagle, dog, plasma, po, Pentagastrin, fasted
  AUC(0-t): 7810 ng·h/mL
[4]; male, beagle, dog, plasma, po, Pentagastrin, fasted, read-out: Cmax
  Cmax: 1820 ng/mL
[4]; Famotidine, fasted
  AUC0-24: 163 (3%) ng · h/mL
  Cmax: 57 (24%) ng/mL

## C=CC(=O)Nc1cccc(Nc2nc(Nc3ccc(N4CCN(C(C)=O)CC4)cc3OC)ncc2C(F)(F)F)c1 [Compound 2 (Form I Hydrobromide)]
[3]; dog, plasma compound 1, fasted dogs (n = 3), capsule orally 24.5 mg/kg, mean
  half-life: 2.4 h
[3]; [9]
  Cmax: 1420 ng/mL
  AUC(0-t): 5260 ng·h/mL
[3]; dog, plasma compound 1, fasted dogs (n = 3), capsule orally 24.5 mg/kg
  Tmax: 2 h
[4]; male, beagle, dog, plasma, po, Pentagastrin, fed
  AUC(0-t): 13900 ng·h/mL
[4]; male, beagle, dog, plasma, po, Pentagastrin, fed, read-out: Cmax
  Cmax: 3970 ng/mL
[4]; Famotidine, fasted
  AUC0-24: 4010 (54%) ng · h/mL
  Cmax: 1180 (20%) ng/mL
[4]; Pentagastrin, fasted
  AUC0-24: 9450 (31%) ng · h/mL
  Cmax: 2860 (39%) ng/mL

## Br.C=CC(=O)Nc1cccc(Nc2nc(Nc3ccc(N4CCN(C(C)=O)CC4)cc3OC)ncc2C(F)(F)F)c1 [Form III hydrobromide salt]
[5]; Buffer pH 1
  pH prior to analysis: 0.95
[5]; Buffer pH 3
  pH prior to analysis: 1.53
[5]; Buffer pH 4.5
  pH prior to analysis: 1.79
[5]; Buffer pH 6.6
  pH prior to analysis: 1.79
[5]; pH 1.0, KCl/HCl
  XRPD of excess solids: remained predominantly consistent with the Form III hydrobromide
[5]; pH 1.0, KCl/HCl buffer, listed as Form III
  Thermodynamic Solubility: 13880 µg/mL
[5]; pH 3.0, Citrate/Phosphate
  XRPD of excess solids: became amorphous
[5]; pH 4.5, Citrate/Phosphate
  XRPD of excess solids: converted to a freebase hydrate form
  Thermodynamic Solubility: 280 µg/mL
[5]; pH 6.6, Citrate/Phosphate
  XRPD of excess solids: converted to a freebase hydrate form
[6]
  hygroscopicity (DVS): slightly hygroscopic
[6]; 0-20% RH
  Moisture uptake, Cycle 3 Sorption: ca. 0.535%
[6]; 20-90% RH
  mass uptake, Cycle 1 Sorption: ca. 1.045%
[6]; 90-0% RH
  mass decrease, Cycle 2 Desorption: ca. 1.983%
[6]; after DVS cycles, listed as Form III
  post DVS XRPD analysis (polymorphic form): converted to Form I hydrobromide salt
[7]; [10]
  HPLC purity after storage: 98.9%
  XRPD after storage: Form I
[7]; 25° C., open container, 7 day
  HPLC purity after storage: 98.2%
  XRPD after storage: Form I
[7]; 40° C./75% RH, closed (crimped) vial, 1 week
  HPLC purity after storage: 99.0%
[7]; 40° C./75% RH, closed (crimped) vial, 1 week, listed as Form III
  XRPD after storage: Form I
[7]; 40° C./75% RH, open vial, 1 week
  HPLC purity after storage: 98.3%
[7]; 40° C./75% RH, open vial, 1 week, listed as Form III
  XRPD after storage: Form I
[7]; [11]
  HPLC purity after storage: 99.0%
  XRPD after storage: Form I
[7]; 80° C., open vial, 1 week, listed as Form III
  HPLC purity after storage: 98.7%
